Measured values as given in patent EP0187057A1, “2-Phenyl-isopropyl-allophanate, preparation and pharmaceutical application” (priority 1984, dated 1986).
“Also recorded” adds a separate entry of the source.

How the values were obtained:
[1] = test system: myoclonies palpébrales provoquées par l'infusion veineuse de pentétrazol; assay: Intravenous pentetrazol infusion producing palpebral myoclonus (threshold seizures); format: in vivo, lapin; conditions: reference anticonvulsants, essais croisés, unit not given
From the text: (§1) Propriétés anticonvulsivantes : • On a effectué, pour déterminer ces propriétés anticonvulsivantes, des expérimentations sur le SCS 289 en procédant à des essais de protection : • - chez le lapin soumis à une transélectrification cranienne génératrice de crises épileptiformes de type "grand mal" ou recevant une infusion veineuse de pentétrazol provoquant l'apparition de myoclonies palpébrales; • - chez la souris recevant, par voie sous-cutanée des doses croissantes de pentétrazol entraînant convulsions et mort ou soumise à une transélectrification transcranienne à basse fréquence génératrice de crises psychomotrices.
Les résultats quant à la protection contre les crises pentétrazoliques liminaires génératrices de myaclonies palpébrales figurent dans les tableaux ci-après.
L'administration préalable de SCS 289 retarde l'apparition des myoclonies palpébrales provoquées par l'infusion veineuse de pentétrazol.
Une expérimentation similaire pratiquée en essais croisés a donné les résultats suivants pour divers anticonvulsivants de référence : […]

crises psychomotrices = assay: Psychomotor seizures induced by low-frequency transcranial electrical stimulation; format: in vivo, souris; conditions: for Pourcentage de souris protégées une heure après traitement: groupes de 20 souris; for ED50: Mus musculus, po, read-out: DE50 capable de protéger 50 % des animaux contre les crises psychomotrices
From the text: as §1
On a également recherché si le SCS 289 était susceptible de protéger la souris contre le choc psychomoteur induit par une stimulation transcranienne à basse fréquence qui provoque, chez l'animal, un bref comportement de désorientation rappelant les attaques psychomotrices de l'homme.
Vis-à-vis des crises psychomotrices provoquées chez la souris par une stimulation électrique transcranienne à basse fréquence, le SCS 35 apparait plus actif que le SCS 289 : […]

[2] = test system: crises épileptiformes consécutives à l'électrochoc; assay: Maximal electroshock producing epileptiform 'grand mal' seizures (1st and 2nd electroshock); format: in vivo, lapin; conditions: for % d'animaux protégés complètement: one hour before second electroshock, groups of ten rabbits
From the text: as §1
Ne considérant comme significative, que la protection complète, les traitements pratiqués une heure avant le second électrochoc ont conféré les protection suivantes (sur groupes de dix lapins) :
Si, par ailleurs, on considère la protection contre les crises toniques (hyperextension des pattes postérieures), il apparaît également une synergie particulièrement aux doses associées de 200 mg/kg de produits.

crises pentétrazoliques = assay: Convulsant and lethal effects of subcutaneous pentetrazol (125 mg/kg); format: in vivo, souris
From the text: as §1
Pour déceler une synergie d'action antagoniste vis-à-vis des effets convulsivants et létaux du pentétrazol injecté par voie sous-cutanée chez la souris à la dose de 125 mg/kg, on a déterminé avec plus de précision la DE50 du SCS 289 et on a recherché si l'association avec le SCS 35 apportait un surcroit appréciable d'activité.
On n'a retenu comme significative que la protection à l'égard des effets létaux observés sur 24 heures.

Structure (SMILES): NC(=O)NC(=O)Cc1ccccc1 [Phénacétamide]
- Elévation du seuil myoclonique ([1]; 25 mg/kg): 32,4
- Elévation du seuil myoclonique ([1]; 50 mg/kg): 43,1
- Elévation du seuil myoclonique ([1]; 100 mg/kg): 58,2
- Pourcentage de souris protégées une heure après traitement (crises psychomotrices; 10 mg/kg voie digestive): 40%
- Pourcentage de souris protégées une heure après traitement (crises psychomotrices; 25 mg/kg voie digestive): 70%
- Pourcentage de souris protégées une heure après traitement (crises psychomotrices; 50 mg/kg voie digestive): 85%
- Pourcentage de souris protégées une heure après traitement (crises psychomotrices; 100 mg/kg voie digestive): 100%
- ED50 (crises psychomotrices; souris, voie digestive): ~14 mg/kg

Structure (SMILES): CCOC(=O)N(C(N)=O)c1ccccc1 [SCS 35, phényl-2 allophanate d'éthyle]
- Pourcentage de souris protégées une heure après traitement (crises psychomotrices; 5 mg/kg voie digestive): 60%
- Pourcentage de souris protégées une heure après traitement (crises psychomotrices; 10 mg/kg voie digestive): 90%
- Pourcentage de souris protégées une heure après traitement (crises psychomotrices; 2,5 mg/kg voie digestive): 40%
- ED50 (crises psychomotrices; souris, voie digestive): 3.5 mg/kg
- DE50 capable de protéger 50 % des animaux contre les crises psychomotrices (crises psychomotrices; souris, voie digestive): 3,5 mg/kg
- % d'animaux protégés complètement ([2]; 100 mg/kg): Nul
- % d'animaux protégés contre les seules crises toniques ([2]; 100 mg/kg, hyperextension tonique des pattes postérieures): 60%
- % d'animaux protégés contre les seules crises toniques ([2]; 200 mg/kg): 80%
- % d'animaux protégés complètement ([2]; 200 mg/kg): 10%
- % de protection vis-à-vis de la létalité pentétrazolique (crises pentétrazoliques; 10 mg/kg): 0%
- % de protection vis-à-vis de la létalité pentétrazolique (crises pentétrazoliques; 20 mg/kg): 10%
- % de protection vis-à-vis de la létalité pentétrazolique (crises pentétrazoliques; 50 mg/kg): 50%
- ED50 (crises pentétrazoliques; Mus musculus, sc, 24 h, souris, read-out: DE50 à l'égard des crises pentétrazoliques maximales et létales): 55 mg/kg

Structure (SMILES): CCCC(CCC)C(=O)O [Valproate de sodium]
- Elévation du seuil myoclonique ([1]; 100 mg/kg): 54,7
- Elévation du seuil myoclonique ([1]; 500 mg/kg): 65,5
- Pourcentage de souris protégées une heure après traitement (crises psychomotrices; 50 mg/kg voie digestive): 15%
- Pourcentage de souris protégées une heure après traitement (crises psychomotrices; 100 mg/kg voie digestive): 40%
- Pourcentage de souris protégées une heure après traitement (crises psychomotrices; 250 mg/kg voie digestive): 85%
- ED50 (crises psychomotrices; souris, voie digestive): ~120 mg/kg
- DL50/DE50 / Crises psycho-motrices (crises psychomotrices; index thérapeutique absolu, souris): 15
- DE50 psychodépressive / DE50 anticonvulsivante / Crises psycho-motrices (crises psychomotrices; index thérapeutique relatif, psychodépressive = mean of DE50 for agilité, force musculaire, motricité, curiosité): 7
- protection contre les crises électriques maximales ([2]; 500 mg/kg, same experimental conditions): absolument inefficace; also recorded: inactif
